# Tests used:
# rabbit B-cells = experiment: rbIgG ELISA of cell culture supernatants of rabbit B-cells co-cultivated with EL-4 B5 feeder cells; assay type: cell-based; conditions: for B-cell growth: SAC added to feeder mix
# Experimental: (§1) a) The co-cultivation was performed in 96-well multi well plates with round bottom. A basis solution comprising EL-4 B5 cells (1.6×10^6 cells/15.2 ml) and cytokines in EL-4 B5 medium was prepared. 200 μl of the basis solution was added to each well of the multi well plate. To each well a single B-cell was added by fluorescence activated cell sorting. After the addition of the B-cells the plate was centrifuged for 5 min. at 300×g. The plate is incubated for seven days at 37° C.
# […] B cell culture supernatants were removed for screening and the cells harvested immediately for variable region gene cloning or frozen at −80° C. in 100 μl RLT buffer (Qiagen, Hilden, Germany).
# (§2) The 96-well multi well plate in which the co-cultivation was performed was centrifuged after seven days of co-cultivation at 300×g for 5 min. 150 μl supernatant was removed and diluted at a ratio of 2:1 with PBS in a second 96-well multi well plate.
# The ELISA was performed as outlined in Example 17.
# The antibody was used at a concentration of 50 ng/ml. If the OD was or exceeded 1 after an incubation time of 5 min. a dilution series of from 0.8 to 108 ng/ml IgG was tested.
# Antibodies produced by single deposited and co-cultivated B-cells or from B-cells obtained from an immunized experimental animal can be characterized with respect to specific antigen binding. The ELISA was performed at room temperature and the ELISA-solution was incubated between the individual steps on a shaker at 20×g. In the first step the antigen was bound to the wells of a 96-well multi well plate. If the antigen was a protein it had been diluted in coating buffer and applied directly to the plate. Peptide antigens were bound via the specific binding pair biotin/streptavidin. The wells of the multi well plate can be already coated with soluble CroteinC (CrC) by the manufacturer. If not, the wells were incubated after the immobilization of the antigen with 200 μl blocking buffer. After the incubation with 100 μl antigen solution per well (pre-coated multi well plate) or 200 μl blocking buffer, respectively, non-bound antigen or blocking buffer was removed by washing with wash buffer. The diluted B-cell supernatants were added in a volume of 100 μl per well and incubated. After the incubation the wells were washed. Afterwards the detection antibody was added in a volume of 100 μl per well. The antibody can be either conjugated to horseradish peroxidase or labeled with biotin. The detection antibody was determined with a streptavidin-horseradish peroxidase conjugate. After the incubation the multi well plate was washed and afterwards 50 μl of a substrate solution containing 3,3′,5,5′ tetramethyl benzidine (TMB) were added per well and incubated for a period as given in Table X. The enzymatic reaction was stopped by the addition of 50 μl sulfuric acid and the optical density was determined at 450 nm and 680 nm with a photometer (Rainbow Thermo ELISA Reader) and the Xread plus-software.
# hamster B-cells = experiment: Co-cultivation of B-cells with feeder cells and feeder mix additives; assay type: cell-based
# Experimental: as §1, §2
# murine B-cells = experiment: as above; assay type: cell-based, mouse
# Experimental: as §1, §2
# [1] = PAP-1 0.01 μM, in the presence of TSN and SAC
# [2] = PAP-1 0.1 μM, in the presence of TSN and SAC
# [3] = PAP-1 1 μM, in the presence of TSN and SAC
# [4] = PAP-1 10 μM, in the presence of TSN and SAC
# [5] = addition of PAP-1 to co-cultivation
# [6] = SAC 1:20000, Table 8a third block (with w/o control)
# [7] = SAC 1:50000, Table 8a third block
# [8] = SAC 1:100000, Table 8a third block
# [9] = SAC 1:150000, Table 8a third block
# [10] = TSN + SAC, SAC 1:5000, Table 8a second block
# [11] = TSN + SAC, SAC 1:10000, Table 8a second block
# [12] = TSN + SAC, SAC 1:20000, Table 8a second block
# [13] = TSN + SAC, SAC 1:40000, Table 8a second block
molecule,measurement,setting,value
"O=c1ccc2c(OCCCCOc3ccccc3)c3ccoc3cc2o1 [PAP-1, 5-(4-phenoxybutoxy) psoralene, reference compound]",rbIgG conc. of all huCk^+ wells [average ng/ml],rabbit B-cells; [1],289.0 ng/mL
same,rbIgG^+ wells [% total wells],rabbit B-cells; [1],29 % total wells
same,rbIgG^+ wells [n],rabbit B-cells; [1],72 n
same,rbIgG conc. of all huCk^+ wells [average ng/ml],rabbit B-cells; [2],452.9 ng/mL
same,rbIgG^+ wells [% total wells],rabbit B-cells; [2],27 % total wells
same,rbIgG^+ wells [n],rabbit B-cells; [2],69 n
same,rbIgG conc. of all huCk^+ wells [average ng/ml],rabbit B-cells; [3],579.5 ng/mL
same,rbIgG^+ wells [% total wells],rabbit B-cells; [3],37 % total wells
same,rbIgG^+ wells [n],rabbit B-cells; [3],93 n
same,rbIgG conc. of all huCk^+ wells [average ng/ml],rabbit B-cells; [4],890.7 ng/mL
same,rbIgG^+ wells [% total wells],rabbit B-cells; [4],32 % total wells
same,rbIgG^+ wells [n],rabbit B-cells; [4],80 n
same,effect on number of B-cell clones,rabbit B-cells; [5],without decreasing the number of B-cell clones
same,effect on rbIgG secretion of B-cells,rabbit B-cells; [5],increases the rbIgG secretion of B-cells in a concentration dependent manner
"IL-6: interleukin-6, cytokine additive of the feeder mix",IgG-concentration,"hamster B-cells; addition of IL-6 to the feeder mix, hamster-B-cells",increased IgG-concentration
same,number of IgG^+-wells/cell clones,"murine B-cells; addition of IL-6 to the feeder mix, murine-B-cells",increased number of IgG^+-wells/cell clones
Staphylococcus aureus strain Cowans cells [SAC],rbIgG conc. of all rbIgG^+ wells [Ø ng/ml],rabbit B-cells; [6],665 ng/mL
same,rbIgG^+ wells [% total wells],rabbit B-cells; [6],30 % total wells
same,rbIgG^+ wells [n],rabbit B-cells; [6],75 n
same,rbIgG conc. of all rbIgG^+ wells [Ø ng/ml],rabbit B-cells; [7],742 ng/mL
same,rbIgG^+ wells [% total wells],rabbit B-cells; [7],37 % total wells
same,rbIgG^+ wells [n],rabbit B-cells; [7],93 n
same,rbIgG conc. of all rbIgG^+ wells [Ø ng/ml],rabbit B-cells; [8],774 ng/mL
same,rbIgG^+ wells [% total wells],rabbit B-cells; [8],37 % total wells
same,rbIgG^+ wells [n],rabbit B-cells; [8],92 n
same,rbIgG conc. of all rbIgG^+ wells [Ø ng/ml],rabbit B-cells; [9],668 ng/mL
same,rbIgG^+ wells [% total wells],rabbit B-cells; [9],29 % total wells
same,rbIgG^+ wells [n],rabbit B-cells; [9],72 n
same,B-cell growth,rabbit B-cells; PBL (B cells and endogenous T cells) mixture for co-cultivation,B-cell growth was inhibited
same,B-cell growth,rabbit B-cells; single deposited B-cells,only single deposited B-cells have a benefit in growth
same,number of IgG^+-wells/cell clones,rabbit B-cells; SAC ratio of from 1:20000 to 1:150000,increased number of IgG^+-wells/cell clones
same,number of IgG^+-wells/cell clones,rabbit B-cells; SAC ratio of from 1:50000 to 1:100000,highest numbers
same,rbIgG conc. of all rbIgG^+ wells [Ø ng/ml],rabbit B-cells; [10],149.0 ng/mL
same,rbIgG^+ wells [% total wells],rabbit B-cells; [10],15 % total wells
same,rbIgG^+ wells [n],rabbit B-cells; [10],13 n
same,rbIgG conc. of all rbIgG^+ wells [Ø ng/ml],rabbit B-cells; [11],159.1 ng/mL
same,rbIgG^+ wells [% total wells],rabbit B-cells; [11],18 % total wells
same,rbIgG^+ wells [n],rabbit B-cells; [11],15 n
same,rbIgG conc. of all rbIgG^+ wells [Ø ng/ml],rabbit B-cells; [12],233.7 ng/mL
same,rbIgG^+ wells [% total wells],rabbit B-cells; [12],32 % total wells
same,rbIgG^+ wells [n],rabbit B-cells; [12],27 n
same,rbIgG conc. of all rbIgG^+ wells [Ø ng/ml],rabbit B-cells; [13],197.2 ng/mL
same,rbIgG^+ wells [% total wells],rabbit B-cells; [13],36 % total wells
same,rbIgG^+ wells [n],rabbit B-cells; [13],30 n
same,number of antibody secreting B-cells and average IgG-concentration in the supernatant after co-cultivation,"rabbit B-cells; addition of SAC, single SAC lot",can be increased
"IL-4: interleukin-4, cytokine additive of the feeder mix (protein, UniProt P07750 21-140, looked up) Interleukin-4: HIHGCDKNHLREIIGILNEVTGEGTPCTEMDVPNVLTATKNTTESELVCRASKVLRIFYLKHGKTPCLKKNSSVLMELQRLFRAFRCLDSSISCTMNESKSTSLKDFLESLKSIMQMDYS",number of IgG^+-wells/cell clones and IgG-concentration in the supernatant,"hamster B-cells; addition of IL-4 to the feeder mix, hamster B-cells",increases the number of IgG^+-wells/cell clones as well as the IgG-concentration in the supernatant
same,number of IgG^+-wells/cell clones and IgG-concentration in the supernatant,"murine B-cells; addition of IL-4 to the feeder mix, murine B-cells",increases the number of IgG^+-wells/cell clones as well as the IgG-concentration in the supernatant

# Source: US20210062149A1, “SINGLE B-CELL CULTIVATION METHOD” (Hoffmann-La Roche Inc., priority 2010, published 2021)
